Results: patent US20210371455A1, “METHODS AND COMPOSITIONS COMPRISING REDUCED LEVEL OF HOST CELL PROTEINS” (Regeneron Pharmaceuticals, Inc., priority 2019, published 2021)

Legend:
[1] = biological target: T1, lysosomal acid lipase (LAL) (Homo sapiens, UniProt P38571); details: cited from earlier work
T1 sequence (P38571 77-399): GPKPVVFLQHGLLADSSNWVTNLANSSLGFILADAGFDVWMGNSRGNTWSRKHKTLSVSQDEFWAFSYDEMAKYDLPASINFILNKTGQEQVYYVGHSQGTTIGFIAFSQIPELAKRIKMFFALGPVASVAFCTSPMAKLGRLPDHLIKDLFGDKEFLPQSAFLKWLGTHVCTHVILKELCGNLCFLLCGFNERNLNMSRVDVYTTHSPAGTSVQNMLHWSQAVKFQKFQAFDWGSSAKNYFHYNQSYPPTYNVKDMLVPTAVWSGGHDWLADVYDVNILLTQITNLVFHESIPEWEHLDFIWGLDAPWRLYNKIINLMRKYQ

[2] = biological target: T2, bovine milk lipoprotein lipase (Bos taurus, UniProt P11151); details: cited from earlier work
T2 construct: host or cells: bovine milk
T2 sequence (P11151 29-478): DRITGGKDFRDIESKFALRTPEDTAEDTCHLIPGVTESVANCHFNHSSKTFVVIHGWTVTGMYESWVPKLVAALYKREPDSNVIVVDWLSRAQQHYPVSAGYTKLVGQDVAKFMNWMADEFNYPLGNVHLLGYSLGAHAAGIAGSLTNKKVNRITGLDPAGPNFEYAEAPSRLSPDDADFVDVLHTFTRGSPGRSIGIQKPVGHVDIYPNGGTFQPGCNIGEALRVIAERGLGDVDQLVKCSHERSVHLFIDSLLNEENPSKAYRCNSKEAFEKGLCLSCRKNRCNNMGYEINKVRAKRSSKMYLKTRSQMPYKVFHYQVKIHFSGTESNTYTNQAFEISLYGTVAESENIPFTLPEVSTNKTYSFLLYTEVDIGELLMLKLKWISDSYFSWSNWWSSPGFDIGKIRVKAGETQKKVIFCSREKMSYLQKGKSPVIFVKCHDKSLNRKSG

LAL [3] = biological target: T3, LAL (Cricetulus griseus, UniProt G3HQY6); assay: PS-20 remaining with LAL, with and without Lalistat-2; type: biochemical; design: made in house; host or cells: CHO cells; details: 0.05% PS-20 and 5 μg/mL LAL; t=0, 8 days and 15 days
T3 sequence (G3HQY6 19-397): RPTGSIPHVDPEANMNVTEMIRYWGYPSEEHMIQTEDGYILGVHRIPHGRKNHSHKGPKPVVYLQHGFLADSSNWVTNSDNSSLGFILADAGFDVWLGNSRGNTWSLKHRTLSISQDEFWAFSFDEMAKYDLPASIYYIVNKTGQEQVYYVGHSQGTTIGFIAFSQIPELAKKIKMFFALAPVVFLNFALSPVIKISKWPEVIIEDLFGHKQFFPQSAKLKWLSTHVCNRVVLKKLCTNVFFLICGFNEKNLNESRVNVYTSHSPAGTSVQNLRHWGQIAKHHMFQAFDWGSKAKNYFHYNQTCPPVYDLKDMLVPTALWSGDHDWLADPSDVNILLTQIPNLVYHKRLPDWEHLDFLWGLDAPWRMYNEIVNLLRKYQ
Experimental: The incubated samples were analyzed at t=0, 8 days and 15 days.

LAL [4] = biological target: T3, LAL; assay: PS-20 remaining in mAb formulation with and without Lalistat-2; type: biochemical; design: endogenous in cells; host or cells: mAb production cells (CHO inferred); details: mAb-15 comprising 0.05% PS-20, 37° C., 15 days, 0.1 M Lalistat-2
Experimental: mAb-15 comprising 0.05% PS-20 was incubated at 37° C. for 15 days in presence and absence of 0.1 M Lalistat-2. The incubated samples were analyzed at t=0, 8 days and […].

LPL = biological target: T4, LPL (Homo sapiens, UniProt P06858); assay: PS-20 remaining with LPL, with and without Lalistat-2; type: biochemical; details: 0.05% PS-20 and 10 μg/mL LPL; t=0, 8 days and 15 days
T4 sequence (P06858 28-475): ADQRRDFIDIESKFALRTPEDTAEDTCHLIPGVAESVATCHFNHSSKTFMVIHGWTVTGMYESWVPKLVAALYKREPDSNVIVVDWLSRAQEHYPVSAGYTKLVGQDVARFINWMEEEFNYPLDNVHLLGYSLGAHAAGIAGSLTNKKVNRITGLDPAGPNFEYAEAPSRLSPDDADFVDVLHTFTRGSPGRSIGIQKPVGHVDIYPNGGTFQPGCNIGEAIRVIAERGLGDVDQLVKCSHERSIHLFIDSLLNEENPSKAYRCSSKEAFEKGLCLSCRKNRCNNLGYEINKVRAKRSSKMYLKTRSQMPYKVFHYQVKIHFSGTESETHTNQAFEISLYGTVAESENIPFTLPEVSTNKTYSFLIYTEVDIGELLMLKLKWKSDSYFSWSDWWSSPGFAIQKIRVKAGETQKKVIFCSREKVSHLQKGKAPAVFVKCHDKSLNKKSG
Experimental: Thus, addition of Lalistat only causes inhibition of LAL […]. […] The incubated samples were analyzed at t=0, 8 days and 15 days. […] Therefore, if lalistat2 can inhibit lipase activity in mAbs completely, then it means the LPL detected from mAbs were not active or abundance are too low to degrade PS20. The PS20 degradation seen from recombinant LPL may either due to the only LPL in high concentration can degrade PS20, or due to unexpected impurities presented in the recombinant LPL.

- degradation of PS-20 in sample incubated with Lalistat-2 (LAL [3]): almost no degradation of PS-20
- degradation of PS-20 in mAb formulation incubated with Lalistat-2 (LAL [4]): almost no degradation of PS-20
- inhibition of LPL's activity (PS-20 remaining) (LPL): cannot inhibit LPL's activity
SMILES: O=C(Oc1nsnc1N1CCCCC1)N1CCCCC1 [Lalistat 2]
- IC50 [1]: 152 nM
- inhibition of bovine milk lipoprotein lipase [2]: does not exhibit inhibition
